Test results taken from patent publication US9817000B2, “Method for identifying compounds that modulate a T2R taste receptor” (The Regents of the University of California, priority 1999, dated 2017).
Read-outs that look alike come from different tables or passages of the source.

Key:
hT2R4 = target: T1, hT2R4 (Homo sapiens, UniProt Q9NYW5); assay: FURA-2 [Ca2+]i imaging in HEK-293 cells expressing Gα15 and rho-hT2R4; assay type: cell-based; conditions: for [Ca2+]i response (FURA-2): 1.5 mM denatonium
T1 construct: Full-length hT2Rs were isolated by PCR amplification of genomic DNA; expressed in transfected cells; host or cells: HEK-293 cells (PEAKrapid) expressing Gα15
T1 sequence (Q9NYW5 1-299): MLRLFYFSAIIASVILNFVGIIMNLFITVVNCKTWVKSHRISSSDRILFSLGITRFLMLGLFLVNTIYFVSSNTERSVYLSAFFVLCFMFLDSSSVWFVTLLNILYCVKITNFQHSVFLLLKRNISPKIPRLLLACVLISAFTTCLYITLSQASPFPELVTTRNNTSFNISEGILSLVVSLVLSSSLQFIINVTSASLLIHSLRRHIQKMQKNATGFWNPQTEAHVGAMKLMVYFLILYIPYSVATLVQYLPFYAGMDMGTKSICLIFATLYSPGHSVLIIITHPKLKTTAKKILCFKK
Excerpt: In this system, receptor activation leads to increases in intracellular calcium [Ca2+]i, which can be monitored at the single cell level using the FURA-2 calcium-indicator dye (Tsien et al., Cell Calcium 6:145-157 (1985)). To test and optimize Gα15 coupling, two different GPCRs, a Gαi-coupled μ-opioid receptor (Reisine, Neuropharm. 34:463-472 (1995)) and a Gαq-coupled mGluR1 receptor (Masu et al., Nature 349:760-765 (1991)), were used. Transfection of these receptors into HEK-293 cell produced robust, agonist-selective, and Gα15-dependent Ca^2+ responses (FIG. 1).
A number of studies have shown that many GPCRs, in particular sensory receptors, require specific “chaperones” for maturation and targeting through the secretory pathway (Baker et al., Embo J 13:4886-4895 (1994); Dwyer et al., Cell 93:455-466 (1998)). Recently, Krautwurst et al. (Cell 95:917-926 (1998)) generated chimeric receptors consisting of the first 20 amino acids of rhodopsin and various rodent olfactory receptors. These were targeted to the plasma membrane and functioned as odorant receptors in HEK-293 cells. To determine whether rhodopsin sequences can also help target T2Rs to the plasma membra, rhodopsin-T2R chimeras (rho-T2Rs) were constructed. […] Similar results were obtained with 11 human and 16 rodent T2Rs (see below). To further enhance the level of T2R expression, rho-T2Rs were placed under the control of a strong EF-1α promoter, and introduced as episomal plasmids into modified HEK-293 cells expressing Gα15 (pEAKrapid cells).
A bridge overlap PCR extension technique was used to generate rho-T2R chimeras, which contain the first 39 amino acids of bovine rhodopsin in frame with human and rodent T2R coding sequences (Mehta and Singh, Biotechniques 26:1082-1086 (1999). All receptors were cloned into a pEAK10 mammalian expression vector (Edge Biosystems, MD). Modified HEK-293 cells (PEAK^rapid cells; Edge BioSystems, MD) were grown and maintained at 37° C. in UltraCulture medium (Bio Whittaker) supplemented with 5% fetal bovine serum, 100 μg/ml Gentamycin sulphate (Fisher), 1 μg/ml Amphotericin B and 2 mM GlutaMax I (Lifetechnologies). For transfection, cells were seeded onto matrigel coated 24-well culture plates or 35 mm recording chambers. After 24 h at 37° C., cells were washed in OptiMEM medium (Lifetechnologies) and transfected using LipofectAMINE reagent (Lifetechnologies). Transfection efficiencies were estimated by co-transfection of a GFP reporter plasmid, and were typically >70%. Immunofluoresence staining, and activity assays were performed 36-48 h after transfection.
Transfected cells were washed once in Hank's balanced salt solution with 1 mM sodium pyruvate and 10 mM HEPES, pH 7.4 (assay buffer), and loaded with 2 μM FURA-2 AM (Molecular Probes) for 1 h at room temperature. The loading solution was removed and cells were incubated in 200 μl of assay buffer for 1 h to allow the cleavage of the AM ester. For most experiments, 24-well tissue culture plates containing cells expressing a single rho-T2R were stimulated with 200 μl of a 2× tastant solution (see next section). [Ca^2+]i changes were monitored using a Nikon Diaphot 200 microscope equipped with a 10×/0.5 fluor objective with the TILL imaging system (T.I.L.L Photonics GmbH). Acquisition and analysis of the fluorescence images used TILL-Vision software. Generally, [Ca^2+]i was measured for 80-120 s by sequentially illuminating cells for 200 ms at 340 nm and 380 nm and monitoring the fluorescence emission at 510 nm using a cooled CCD camera. The F340/F380 ratio was analyzed to measure [Ca^2+]i.
Kinetics of activation and deactivation were measured using a bath perfusion system. Cells were seeded onto a 150 μl microperfusion chamber, and test solutions were pressure-ejected with a picospritzer apparatus (General Valve, Inc.). Flow-rate was adjusted to ensure complete exchange of the bath solution within 4-5 s. […]

[1] = test system: Cyx taster and non-taster mouse strains; conditions: cited from earlier work; for taste behaviour: non-taster strains

[Ca2+]i response (FURA-2) (hT2R4; absence of Gα15)	[Ca2+]i response (FURA-2) (hT2R4; with Gα15)	increase in [Ca2+]i on tastant stimulation (hT2R4; concentrations as in FIG. 4 (denatonium 5 mM))	threshold of dose-dependent response (hT2R4; in µM)	Structure (SMILES)	[Ca2+]i response (hT2R4)	avoidance threshold ([1]; Cyx taster strains)	taste behaviour ([1]; at 8 μM)	taste behaviour ([1]; at 1)	decrease in sensitivity ([1]; non-tasters vs taster strains) [fold]	sensitivity threshold ([1]; rodents) [µM]
No increase in [Ca2+]i	robust Gα15 dependent responses	increase in [Ca2+]i could be induced	~100	CC[N+](CC)(CC(=O)Nc1c(C)cccc1C)Cc1ccccc1 [denatonium]	significant transient increase in [Ca2+]i	–	–	–	–	–
–	–	–	–	C[C@@H]1C[C@@H]([C@H](O)CC2CC(=O)NC(=O)C2)C(=O)[C@@H](C)C1 [cycloheximide]	–	0.25	strongly avoid	non-tasters	~8	~0.25
